In general, melting point refers to the temperature of the solid-liquid transition.

For series [1], the system named is Electrocardiogram in Rats. Kind of series: Effect on electrocardiogram in rats. It is filed as in vivo. To be noted: 5 mg/kg intravenous, anesthetized rat, two minutes after administration. The procedure:
[Effect on Electrocardiogram in Rats]
After anesthetizing with 1.5 g/kg (s.c.) of urethane, a rat was fixed on a warm plate at its supination. Polyethylene tubes for administering a test compound and for measuring the blood pressure were inserted into and fixed to the jugular vein and femoral artery, respectively. The blood pressure of the artery was measured using a pressure transducer. An electrode was attached to the animal, electrocardiograms were led by the standard lead II. The heart rate was measured by using a heart rate counter. The test compound was given by intravenous injection when the blood pressure and heat rate had been stabilized after the operation. […] Each parameter on the electrocardiogram was processed using an analysis software running on the personal computer to calculate the rate of change as compared with that before administration.

Counter-ions that a name gives are not always drawn.

Take `CCCCOc1ccc(N(C)CCC2(O)CCN(Cc3ccc4c(c3)OCO4)CC2)cc1` [Example 162, 4-[2-[N-(4-n-butoxyphenyl)-N-methylamino]ethyl]-1-(3,4-methylenedioxyphenylmethyl)piperidin-4-ol dihydrochloride]: in series [1], the “PQ Distance (rate of change)” value is on record as “— (The rate of change at two minutes after administration is 15% or less as compared with that before administration.)” and the “QRS Width (rate of change)” value is listed as “— (The rate of change at two minutes after administration is 15% or less as compared with that before administration.)”.

As to `CCCCOc1ccc(N(C)CC(O)C2(O)CCN(CCc3ccc(F)cc3)CC2)cc1` (stereo not drawn) [Example 196, 4-[2-[N-(4-n-butoxyphenyl)-N-methylamino]-1-hydroxyethyl]-1-[2-(4-fluorophenyl)ethyl]piperidin-4-ol dihydrochloride], in series [1], the “PQ Distance (rate of change)” value is “— (The rate of change at two minutes after administration is 15% or less as compared with that before administration.)” and the “QRS Width (rate of change)” value was “— (The rate of change at two minutes after administration is 15% or less as compared with that before administration.)”. As to `CCCCOc1ccc(N(C)CCC2(OC)CCN(Cc3ccccc3)CC2)cc1` [Example 201, 1-benzyl-4-methoxy-4-[2-[N-(4-n-butoxyphenyl)-N-methylamino]ethyl]piperidine dihydrochloride], in series [1], the “PQ Distance (rate of change)” value is given as “— (The rate of change at two minutes after administration is 15% or less as compared with that before administration.)” and the “QRS Width (rate of change)” value is listed as “— (The rate of change at two minutes after administration is 15% or less as compared with that before administration.)”.

On to `CCCCOc1ccc(N(CCC2(O)CCN(CCc3ccc(F)cc3)CC2)C(C)=O)cc1` [Example 57, 4-[2-[N-acetyl-N-(4-n-butoxyphenyl)amino]ethyl]-1-[2-(4-fluorophenyl)ethyl]piperidin-4-ol], for which the melting point was in the range of 121.6 to 122.1 °C. In the case of `CCCCOc1ccc(N(C)CCC2(O)CCN(Cc3ccc(F)cc3)CC2)cc1` [Example 177, 4-[2-[N-(4-n-butoxyphenyl)-N-methylamino]ethyl]-1(4-fluorophenylmethyl)piperidin-4-ol dihydrochloride], in series [1], the “PQ Distance (rate of change)” value is “— (The rate of change at two minutes after administration is 15% or less as compared with that before administration.)” and the “QRS Width (rate of change)” value is given as “— (The rate of change at two minutes after administration is 15% or less as compared with that before administration.)”. The compound `CC(C)Oc1ccc(N(C)CCC2(O)CCN(Cc3ccc(OC(F)(F)F)cc3)CC2)cc1` [Example 89, 4-[2-[N-methyl-N-(4-isopropoxyphenyl)amino]ethyl]-1-(4-trifluoromethoxyphenylmethyl)piperidin-4-ol] came in with a melting point of 84.7 to 85.1 °C. Turning to `CCCCOc1ccc(N(C)CCC2(O)CCN(CCc3ccc(F)cc3)CC2)cc1` (as salt: hydrochloride) [Example 176, 4-[2-[N-(4-n-butoxyphenyl)-N-methylamino]ethyl]-1-[2-(4-fluorophenyl)ethyl]piperidin-4-ol dihydrochloride], the melting point was 207 °C (dec.). Still for that read-out and setting: the same measure for `CCOC(=O)c1ccc(CN2CCC(O)(CCN(C)c3ccc(OC(C)C)cc3)CC2)cc1` [Example 106, 1-[4-(ethoxycarbonyl)phenylmethyl]-4-[2-[N-methyl-N-(4-isopropoxyphenyl)amino]ethyl]piperidin-4-ol]: 50.3 to 51.6 °C.

With `CCCCOc1ccc(N(C)CCC2(O)CCN(CC(O)c3ccc(F)cc3)CC2)cc1` (stereo not drawn) [Example 198, 4-[2-[N-(4-n-butoxyphenyl)-N-methylamino]ethyl]-1-[2-(4-fluorophenyl)-2-hydroxyethyl]piperidin-4-ol dihydrochloride], in series [1], the “PQ Distance (rate of change)” value was “— (The rate of change at two minutes after administration is 15% or less as compared with that before administration.)” and the “QRS Width (rate of change)” value is reported as “— (The rate of change at two minutes after administration is 15% or less as compared with that before administration.)”. Compound `CC(C)Oc1ccc(N(C)CCC2(O)CCN(Cc3ccc(Br)cc3)CC2)cc1` (as salt: hydrochloride) [Example 220, 1-(4-bromophenylmethyl)-4-[2-[N-methyl-N-(4-isopropoxyphenyl)amino]ethyl]piperidin-4-ol dihydrochloride] yielded a melting point of 224.4 to 226.2 °C. Compound `CCCCCOc1ccc(N(C)CCC2(O)CCN(Cc3ccccc3)CC2)cc1` [Example 15, 1-Benzyl-4-[2-[N-methyl-N-(4-n-pentyloxyphenyl)-amino]ethyl]piperidin-4-ol] registered a melting point of 58.5 to 60.3 °C. The compound `COc1cccc(CN2CCC(O)(CCN(C)c3ccc(OC(C)C)cc3)CC2)c1` [Example 77, 1-(3-methoxyphenylmethyl)-4-[2-[N-methyl-N-(4-isopropoxyphenyl)amino]ethyl]piperidin-4-ol] yielded a melting point of 45.1 to 46.5 °C. On the same count and under the same terms, the same measure for `CCCCOc1ccc(N(C)CCC2(O)CCN(CC(O)c3ccccc3)CC2)cc1` (stereo not drawn) [Example 54, 4-[2-[N-(4-n-butoxyphenyl)-N-methylamino]-ethyl]-1-(2-phenyl-2-hydroxyethyl)piperidin-4-ol]: 104 to 104.8 °C.

`CC(C)Oc1ccc(N(C)CCC2(O)CCN(Cc3cccs3)CC2)cc1` [Example 254, 4-[2-[N-methyl-N-(4-isopropoxyphenyl)amino]ethyl]-1(2-thienylmethyl)piperidin-4-ol dihydrochloride]: in series [1], the “PQ Distance (rate of change)” value was “— (The rate of change at two minutes after administration is 15% or less as compared with that before administration.)” and the “QRS Width (rate of change)” value was “— (The rate of change at two minutes after administration is 15% or less as compared with that before administration.)”. Regarding `CCCCOc1ccc(N(C)CCC2(O)CCN(Cc3ccc4c(c3)OCO4)CC2)cc1` (as salt: hydrochloride) [Example 162, 4-[2-[N-(4-n-butoxyphenyl)-N-methylamino]ethyl]-1-(3,4-methylenedioxyphenylmethyl)piperidin-4-ol dihydrochloride], the melting point was 211 °C (dec.). Consider `CCCCOc1ccc(N(C)CCC2(O)CCN(Cc3ccc(C)cc3)CC2)cc1` [Example 31, 4-[2-[N-(4-n-butoxyphenyl)-N-methylamino]ethyl]-1(4-methylphenylmethyl)piperidin-4-ol], for which the melting point was 73.3 to 75 °C. On to `CC(C)Oc1ccc(N(C)CCC2(O)CCN(Cc3ccc(C#N)cc3)CC2)cc1` [Example 226, 1-(4-cyanophenylmethyl)-4-[2-[N-methyl-N-(4-isopropoxyphenyl)amino]ethyl]piperidin-4-ol dihydrochloride], for which, in series [1], the “PQ Distance (rate of change)” value is on record as “— (The rate of change at two minutes after administration is 15% or less as compared with that before administration.)” and the “QRS Width (rate of change)” value is on record as “— (The rate of change at two minutes after administration is 15% or less as compared with that before administration.)”. `CN(CCC1(O)CCN(Cc2ccccc2)CC1)c1ccc(OC2CCC2)cc1` [Example 17, 1-Benzyl-4-[2-[N-(4-cyclobutoxyphenyl)-N-methylamino]-ethyl]piperidin-4-ol] gave a melting point of 68.6 to 69.8 °C. On the same count and under the same terms, the same measure for `CCCCOc1ccc(N(C)CCC2(OC)CCN(Cc3ccccc3)CC2)cc1` (as salt: hydrochloride) [Example 201, 1-benzyl-4-methoxy-4-[2-[N-(4-n-butoxyphenyl)-N-methylamino]ethyl]piperidine dihydrochloride]: 215 °C (dec.). In turn, `CC(C)Oc1ccc(N(C)CCC2(O)CCN(Cc3cccc(C(F)(F)F)c3)CC2)cc1` [Example 85, 4-[2-[N-methyl-N-(4-isopropoxyphenyl)amino]ethyl]-1-[3-(trifluoromethyl)phenylmethyl]piperidin-4-ol] came in with a melting point of 60.8 to 61.1 °C.

For `CC(C)Oc1ccc(N(C)CCC2(O)CCN(Cc3ccc(OC(C)C)cc3F)CC2)cc1` [Example 90, 1-(2-fluoro-4-isopropoxyphenylmethyl)-4-[2-[N-methyl-N-(4-isopropoxyphenyl)amino]ethyl]piperidin-4-ol], the melting point is 65.1 to 66.1 °C. `CCCCOc1ccc(N(C)CCC2(O)CCN(Cc3ccc(C#N)cc3)CC2)cc1` [Example 22, 4-[2-[N-(4-n-butoxyphenyl)-N-methylamino]ethyl]-1(4-cyanophenylmethyl)piperidin-4-ol] showed a melting point of 83.5 to 85.5 °C. In the case of `CCCCOc1ccc(N(C)CCC2(O)CCN(CC(O)c3ccc(F)cc3)CC2)cc1` (stereo not drawn) (as salt: hydrochloride) [Example 198, 4-[2-[N-(4-n-butoxyphenyl)-N-methylamino]ethyl]-1-[2-(4-fluorophenyl)-2-hydroxyethyl]piperidin-4-ol dihydrochloride], the melting point was 174.9 to 184.5 °C.
